From publication PMC7352759, “S(+)-(2E)-N-(2-Hydroxypropyl)-3-Phenylprop-2-Enamide (KM-568): A Novel Cinnamamide Derivative with Anticonvulsant Activity in Animal Models of Seizures and Epilepsy” (International Journal of Molecular Sciences, 2020)

Columns and labels:
[1] = Ames microplate format (MPF) assay, TA98; conditions: Salmonella typhimurium
Source text: (§1) The Ames microplate format (MPF) mutagenicity assay (Xenometrix, Allschwil, Switzerland) was used to test KM-568 mutagenicity. Growth, exposure, and indicator media, positive control chemicals, and four Salmonella typhimurium strains TA98, TA100, TA1535 and TA1537 were included in the kit. TA100 and TA1535 strains detect base substitution mutations, whereas TA98 and TA1537 indicate frameshift mutations. The strains of bacteria included in a kit are in compliance with the Organization for Economic Cooperation and Development (OECD) 471 Guideline for Testing of Chemicals.
(§2) The assay is a liquid microplate modification of the traditional Salmonella test. During the procedure, bacteria are exposed to different concentrations of a test compound for 90 min in a medium containing sufficient histidine to support cell divisions. Then, the cultures are diluted in a pH indicator medium lacking histidine and aliquoted into 48 wells of a 384-well plate. Within 2 days, bacteria that have undergone reversion to amino acid prototrophy will form colonies. Products of bacteria metabolism reduce pH of the medium, changing the color of wells from purple to yellow.
(§3) The test procedure provided by Xenometrix and described in detail elsewhere was followed. Bacterial strains were grown overnight (14–16 h) in exposure medium in a shaker incubator and then exposed to KM-568 in 24-well plates for 90 min at 37 °C with agitation. Final KM-568 concentrations in the assay were 0.1, 0.2, and 0.5 mM. After preincubation, the cultures were diluted in the indicator medium and the contents of each 24-well culture were transferred to 48 wells on a 384-well plate and incubated further for 48 h at 37 °C without agitation. After the exposure, the number of wells containing bacteria was scored for yellow wells. […] Pure DMSO was used as a negative control. All doses were performed in triplicate.
(§4) The fold increase of revertants relative to the solvent control was determined by dividing the mean number of positive wells at each dose by the solvent control at baseline. The solvent control at baseline was calculated as the mean number of positive wells in the solvent control plus one standard deviation (SD). When an increase of more than twofold relative to the baseline at more than one dose with a dose–response was observed, the sample was classified as positive, whereas when no response > 2 times the baseline and no dose–response was stated, the sample was classified as negative.

[2] = Ames microplate format (MPF) assay, TA1537; conditions: Salmonella typhimurium
Source text: as §1, §2, §3, §4

[3] = tested on: Salmonella typhimurium TA1535; experiment: Ames microplate format (MPF) assay, TA1535; conditions: TA1535, positive control at 100 µg/mL
Source text: as §1, §2, §3, §4

mice [4] = conditions: mice i.p.; cited from earlier work
mice [5] = conditions: mice i.p.; cited from earlier work; remark: listed apart in the source
rats = tested on: rats; set-up: method as in doi:10.2174/157018012798192982; conditions: rats p.o.; cited from earlier work

## O=[N+]([O-])c1ccc2c(c1)Cc1ccccc1-2 [2-NF, 2-nitrofluorene, reference compound]
[1]
  fold induction at 90 min, 2 µg/mL: 6.4

## Nc1c2ccccc2nc2ccccc12 [9-AAc, 9-aminoacridine, reference compound]
[2]
  fold induction at 90 min, 15 µg/mL: 48

## NNc1ccn([C@@H]2O[C@H](CO)[C@@H](O)[C@H]2O)c(=O)n1 [N4-ACT, N-4-aminocytidine, reference compound]
[3]
  fold induction of the number of positive wells over baseline: 14.7 fold

## O=C(/C=C/c1ccccc1)N1CCCC(O)C1 (stereo not drawn) [R,S-(2E)-1-(3-hydroxypiperidin-1-yl)-3-phenylprop-2-en-1-one]
Mice [4]
  MES ED50: 55.0 mg/kg
Mice [5]
  scMET ED50: 82.3 mg/kg

## CC(O)CNC(=O)/C=C/c1ccc(Cl)cc1 (stereo not drawn) [R,S-(2E)-3-(4-chlorophenyl)-N-(2-hydroxypropyl)prop-2-enamide]
Mice [4]
  MES ED50: 55.6 mg/kg
Mice [5]
  scMET ED50: 102.2 mg/kg

## CC(O)CNC(=O)/C=C/c1ccccc1 (stereo not drawn) [R,S-(2E)-N-(2-hydroxypropyl)-3-phenylprop-2-enamide]
Mice [4]
  MES (pharmacological parameter, ED50): 47.1 mg/kg
rats
  MES (pharmacological parameter, ED50): 22.8 mg/kg
Mice [5]
  scMET (pharmacological parameter, ED50): 77.1 mg/kg

## Cc1ccccc1/C=C/C(=O)N[C@@H](C)CO [S-(2E)-N-(1-hydroxypropan-2-yl)-3-(2-methylphenyl)prop-2-enamide]
Mice [4]
  MES ED50: 42.6 mg/kg
Mice [5]
  scMET ED50: 58.4 mg/kg
